For test [1], the target named is Myosin light chain kinase, smooth muscle (Homo sapiens) (UniProt Q15746). Kind of test: Inhibition of human smMLCK assessed as residual activity at 10 uM relative to control.
Test [2] has as its target Insulin-like growth factor 1 receptor (Homo sapiens) (UniProt P08069). Briefly: Inhibition of human IGF-1R assessed as residual activity at 10 uM relative to control.
Test [3] has as its target T1, Serine/threonine-protein kinase Chk1 (Homo sapiens) (UniProt O14757).
T1 sequence (whole entry): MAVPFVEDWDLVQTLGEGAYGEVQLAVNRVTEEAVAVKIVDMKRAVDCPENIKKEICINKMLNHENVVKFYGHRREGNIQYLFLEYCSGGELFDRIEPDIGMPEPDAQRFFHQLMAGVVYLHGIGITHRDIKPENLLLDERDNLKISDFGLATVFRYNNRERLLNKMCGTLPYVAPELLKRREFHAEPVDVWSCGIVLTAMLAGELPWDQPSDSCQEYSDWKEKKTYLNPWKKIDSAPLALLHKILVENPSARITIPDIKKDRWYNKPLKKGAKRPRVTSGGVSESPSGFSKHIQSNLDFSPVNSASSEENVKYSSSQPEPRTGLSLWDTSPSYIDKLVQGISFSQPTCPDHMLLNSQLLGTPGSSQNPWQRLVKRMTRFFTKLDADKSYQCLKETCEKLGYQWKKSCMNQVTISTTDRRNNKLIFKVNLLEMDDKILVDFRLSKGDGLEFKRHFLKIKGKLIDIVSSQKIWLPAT
Briefly: Inhibition of human CHK1 assessed as residual activity at 1 uM relative to control.

For test [4], the target named is Ephrin type-A receptor 2 (Homo sapiens) (UniProt P29317). Briefly: Inhibition of human EPHA2 assessed as residual activity at 10 uM relative to control.
Test [5] deals with T2, Inhibitor of nuclear factor kappa-B kinase subunit beta (Homo sapiens) (UniProt O14920).
T2 sequence (whole entry): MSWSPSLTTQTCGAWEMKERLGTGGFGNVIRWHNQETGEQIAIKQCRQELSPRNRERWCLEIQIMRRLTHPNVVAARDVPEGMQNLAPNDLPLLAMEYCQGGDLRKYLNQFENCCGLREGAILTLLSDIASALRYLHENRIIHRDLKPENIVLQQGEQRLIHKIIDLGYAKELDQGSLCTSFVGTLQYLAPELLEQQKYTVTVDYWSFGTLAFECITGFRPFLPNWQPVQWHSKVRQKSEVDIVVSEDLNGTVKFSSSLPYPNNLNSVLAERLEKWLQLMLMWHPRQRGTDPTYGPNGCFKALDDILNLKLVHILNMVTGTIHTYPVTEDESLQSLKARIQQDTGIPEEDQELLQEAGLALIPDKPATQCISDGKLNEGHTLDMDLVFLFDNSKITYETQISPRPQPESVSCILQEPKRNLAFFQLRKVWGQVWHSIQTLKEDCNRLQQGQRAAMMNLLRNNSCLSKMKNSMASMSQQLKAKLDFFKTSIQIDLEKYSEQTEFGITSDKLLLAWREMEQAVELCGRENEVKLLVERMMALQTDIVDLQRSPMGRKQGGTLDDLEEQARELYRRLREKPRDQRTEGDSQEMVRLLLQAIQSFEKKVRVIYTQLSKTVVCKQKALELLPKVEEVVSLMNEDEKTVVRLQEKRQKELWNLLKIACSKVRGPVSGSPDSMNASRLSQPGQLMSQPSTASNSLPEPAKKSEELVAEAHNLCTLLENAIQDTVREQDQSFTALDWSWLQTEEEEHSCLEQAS
Kind of test: Inhibition of human IKKbeta assessed as residual activity at 10 uM relative to control.

The target of test [6] is Tyrosine-protein kinase Yes (Homo sapiens) (UniProt P07947). Kind of test: Inhibition of human YES1 assessed as residual activity at 1 uM relative to control.
For test [7], the target named is MAP/microtubule affinity-regulating kinase 3 (Homo sapiens) (UniProt P27448). Briefly: Inhibition of human MARK3 assessed as residual activity at 10 uM relative to control.
In test [8] the target is Insulin receptor-related protein (Homo sapiens) (UniProt P14616). Briefly: Inhibition of human IRR assessed as residual activity at 1 uM relative to control.
Test [9] deals with T3, Serine/threonine-protein kinase D1 (Homo sapiens) (UniProt Q15139).
T3 sequence (whole entry): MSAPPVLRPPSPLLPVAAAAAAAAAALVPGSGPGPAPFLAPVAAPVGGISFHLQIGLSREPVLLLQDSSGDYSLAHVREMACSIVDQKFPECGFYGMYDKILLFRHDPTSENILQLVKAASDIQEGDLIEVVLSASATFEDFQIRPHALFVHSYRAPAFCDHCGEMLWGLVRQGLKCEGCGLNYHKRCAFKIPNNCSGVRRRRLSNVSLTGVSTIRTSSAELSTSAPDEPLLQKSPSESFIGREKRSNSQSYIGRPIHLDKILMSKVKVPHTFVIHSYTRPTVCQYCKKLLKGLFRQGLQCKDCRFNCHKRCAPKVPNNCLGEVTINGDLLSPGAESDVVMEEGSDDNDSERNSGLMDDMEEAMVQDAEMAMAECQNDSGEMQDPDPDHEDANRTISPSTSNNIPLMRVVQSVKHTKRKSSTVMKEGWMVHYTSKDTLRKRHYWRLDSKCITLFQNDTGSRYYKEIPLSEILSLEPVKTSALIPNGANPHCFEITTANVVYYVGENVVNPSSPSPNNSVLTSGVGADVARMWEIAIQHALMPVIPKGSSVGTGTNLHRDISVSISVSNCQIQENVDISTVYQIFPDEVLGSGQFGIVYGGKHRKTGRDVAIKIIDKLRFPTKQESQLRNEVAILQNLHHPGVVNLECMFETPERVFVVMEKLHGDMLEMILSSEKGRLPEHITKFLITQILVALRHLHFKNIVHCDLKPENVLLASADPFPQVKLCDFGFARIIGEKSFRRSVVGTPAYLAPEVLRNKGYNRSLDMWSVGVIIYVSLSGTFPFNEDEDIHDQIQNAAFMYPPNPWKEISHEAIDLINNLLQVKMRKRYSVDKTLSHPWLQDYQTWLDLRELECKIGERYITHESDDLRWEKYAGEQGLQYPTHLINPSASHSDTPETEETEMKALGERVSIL
Briefly: Inhibition of human PKD1 assessed as residual activity at 1 uM relative to control.

Chain of Insulin receptor-related protein (Homo sapiens) (P14616 27-742 limits assumed): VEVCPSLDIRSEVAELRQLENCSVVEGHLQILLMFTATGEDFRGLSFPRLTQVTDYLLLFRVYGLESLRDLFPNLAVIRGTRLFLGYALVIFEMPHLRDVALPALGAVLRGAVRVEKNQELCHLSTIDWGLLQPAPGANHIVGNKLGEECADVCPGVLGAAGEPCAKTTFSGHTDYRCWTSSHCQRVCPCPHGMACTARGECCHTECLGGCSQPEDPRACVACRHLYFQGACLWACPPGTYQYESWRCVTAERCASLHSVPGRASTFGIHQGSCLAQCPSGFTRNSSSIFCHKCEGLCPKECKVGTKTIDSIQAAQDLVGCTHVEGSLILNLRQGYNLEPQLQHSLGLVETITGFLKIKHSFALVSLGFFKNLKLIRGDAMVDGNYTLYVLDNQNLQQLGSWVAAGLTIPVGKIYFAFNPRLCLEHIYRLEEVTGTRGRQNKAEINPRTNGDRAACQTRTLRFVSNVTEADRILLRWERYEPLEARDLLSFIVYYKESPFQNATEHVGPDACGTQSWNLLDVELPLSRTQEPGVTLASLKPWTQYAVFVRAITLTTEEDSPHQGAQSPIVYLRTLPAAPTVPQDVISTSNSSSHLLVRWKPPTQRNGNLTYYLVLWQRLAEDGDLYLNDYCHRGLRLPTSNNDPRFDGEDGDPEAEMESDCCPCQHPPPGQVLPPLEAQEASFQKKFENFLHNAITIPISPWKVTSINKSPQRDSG
Chain of Insulin receptor-related protein (Homo sapiens) (P14616 747-1297 limits assumed): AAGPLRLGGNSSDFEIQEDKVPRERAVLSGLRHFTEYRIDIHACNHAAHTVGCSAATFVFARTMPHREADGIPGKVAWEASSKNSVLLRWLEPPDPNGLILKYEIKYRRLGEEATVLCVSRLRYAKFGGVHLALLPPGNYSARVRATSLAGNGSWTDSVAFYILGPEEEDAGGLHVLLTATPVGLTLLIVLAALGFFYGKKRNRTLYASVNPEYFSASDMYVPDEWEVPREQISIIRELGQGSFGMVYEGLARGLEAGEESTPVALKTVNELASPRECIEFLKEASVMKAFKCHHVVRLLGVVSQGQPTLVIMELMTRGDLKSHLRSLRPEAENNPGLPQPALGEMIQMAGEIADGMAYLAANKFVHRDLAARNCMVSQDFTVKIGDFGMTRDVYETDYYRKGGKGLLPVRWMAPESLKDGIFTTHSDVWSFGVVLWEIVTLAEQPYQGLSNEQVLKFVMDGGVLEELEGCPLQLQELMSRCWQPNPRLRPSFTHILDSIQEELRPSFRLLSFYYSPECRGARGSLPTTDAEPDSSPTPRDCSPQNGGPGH
Chain of Tyrosine-protein kinase Yes (Homo sapiens) (P07947 2-543 limits assumed): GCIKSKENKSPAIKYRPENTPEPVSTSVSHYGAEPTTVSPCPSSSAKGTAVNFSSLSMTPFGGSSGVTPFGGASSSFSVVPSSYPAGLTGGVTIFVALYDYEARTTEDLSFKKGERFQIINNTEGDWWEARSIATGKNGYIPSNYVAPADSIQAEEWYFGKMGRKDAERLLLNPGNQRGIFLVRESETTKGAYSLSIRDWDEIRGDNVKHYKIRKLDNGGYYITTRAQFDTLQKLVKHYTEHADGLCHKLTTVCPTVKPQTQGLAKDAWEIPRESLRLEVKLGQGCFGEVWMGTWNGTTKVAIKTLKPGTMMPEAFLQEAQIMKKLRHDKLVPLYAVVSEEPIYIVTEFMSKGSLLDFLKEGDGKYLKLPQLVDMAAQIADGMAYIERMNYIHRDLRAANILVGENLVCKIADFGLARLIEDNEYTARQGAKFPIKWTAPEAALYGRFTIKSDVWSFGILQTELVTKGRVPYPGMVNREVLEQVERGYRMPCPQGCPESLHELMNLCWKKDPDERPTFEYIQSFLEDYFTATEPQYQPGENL
Chain of Insulin-like growth factor 1 receptor (Homo sapiens) (P08069 31-736 limits assumed): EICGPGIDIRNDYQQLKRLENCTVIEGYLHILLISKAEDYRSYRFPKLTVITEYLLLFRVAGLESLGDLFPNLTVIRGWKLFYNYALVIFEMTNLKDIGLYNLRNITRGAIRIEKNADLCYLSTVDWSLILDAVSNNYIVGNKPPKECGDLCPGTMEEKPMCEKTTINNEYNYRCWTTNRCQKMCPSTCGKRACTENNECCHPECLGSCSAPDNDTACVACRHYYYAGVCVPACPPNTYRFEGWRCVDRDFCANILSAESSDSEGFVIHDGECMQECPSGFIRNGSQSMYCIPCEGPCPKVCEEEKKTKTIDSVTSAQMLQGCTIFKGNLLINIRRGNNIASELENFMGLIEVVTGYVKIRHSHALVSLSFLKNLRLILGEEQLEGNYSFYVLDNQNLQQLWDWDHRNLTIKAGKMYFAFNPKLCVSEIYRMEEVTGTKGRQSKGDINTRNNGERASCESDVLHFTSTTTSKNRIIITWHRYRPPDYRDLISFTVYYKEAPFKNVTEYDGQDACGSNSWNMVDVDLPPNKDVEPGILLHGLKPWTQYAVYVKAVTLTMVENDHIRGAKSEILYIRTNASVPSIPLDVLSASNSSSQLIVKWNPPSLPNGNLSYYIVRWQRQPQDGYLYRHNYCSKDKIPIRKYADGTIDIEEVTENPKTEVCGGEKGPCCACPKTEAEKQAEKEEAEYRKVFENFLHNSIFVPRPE
Chain of Insulin-like growth factor 1 receptor (Homo sapiens) (P08069 741-1367 limits assumed): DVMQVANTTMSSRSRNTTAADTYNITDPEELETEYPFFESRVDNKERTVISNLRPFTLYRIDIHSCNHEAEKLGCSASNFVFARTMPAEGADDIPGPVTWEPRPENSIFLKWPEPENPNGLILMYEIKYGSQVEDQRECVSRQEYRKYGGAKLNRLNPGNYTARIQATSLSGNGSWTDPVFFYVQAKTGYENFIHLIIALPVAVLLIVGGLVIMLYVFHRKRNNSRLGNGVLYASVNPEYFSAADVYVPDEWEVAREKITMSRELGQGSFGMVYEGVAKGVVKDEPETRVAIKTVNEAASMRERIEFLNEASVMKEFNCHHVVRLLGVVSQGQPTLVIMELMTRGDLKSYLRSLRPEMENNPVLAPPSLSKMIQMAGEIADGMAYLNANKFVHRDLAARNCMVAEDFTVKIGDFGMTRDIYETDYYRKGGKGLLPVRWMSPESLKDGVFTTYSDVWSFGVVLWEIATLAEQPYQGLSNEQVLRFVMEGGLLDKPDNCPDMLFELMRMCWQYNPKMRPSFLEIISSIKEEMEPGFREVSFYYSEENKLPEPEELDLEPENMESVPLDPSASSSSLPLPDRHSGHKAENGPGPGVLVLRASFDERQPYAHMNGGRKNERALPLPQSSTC
Chain of Ephrin type-A receptor 2 (Homo sapiens) (P29317 whole entry): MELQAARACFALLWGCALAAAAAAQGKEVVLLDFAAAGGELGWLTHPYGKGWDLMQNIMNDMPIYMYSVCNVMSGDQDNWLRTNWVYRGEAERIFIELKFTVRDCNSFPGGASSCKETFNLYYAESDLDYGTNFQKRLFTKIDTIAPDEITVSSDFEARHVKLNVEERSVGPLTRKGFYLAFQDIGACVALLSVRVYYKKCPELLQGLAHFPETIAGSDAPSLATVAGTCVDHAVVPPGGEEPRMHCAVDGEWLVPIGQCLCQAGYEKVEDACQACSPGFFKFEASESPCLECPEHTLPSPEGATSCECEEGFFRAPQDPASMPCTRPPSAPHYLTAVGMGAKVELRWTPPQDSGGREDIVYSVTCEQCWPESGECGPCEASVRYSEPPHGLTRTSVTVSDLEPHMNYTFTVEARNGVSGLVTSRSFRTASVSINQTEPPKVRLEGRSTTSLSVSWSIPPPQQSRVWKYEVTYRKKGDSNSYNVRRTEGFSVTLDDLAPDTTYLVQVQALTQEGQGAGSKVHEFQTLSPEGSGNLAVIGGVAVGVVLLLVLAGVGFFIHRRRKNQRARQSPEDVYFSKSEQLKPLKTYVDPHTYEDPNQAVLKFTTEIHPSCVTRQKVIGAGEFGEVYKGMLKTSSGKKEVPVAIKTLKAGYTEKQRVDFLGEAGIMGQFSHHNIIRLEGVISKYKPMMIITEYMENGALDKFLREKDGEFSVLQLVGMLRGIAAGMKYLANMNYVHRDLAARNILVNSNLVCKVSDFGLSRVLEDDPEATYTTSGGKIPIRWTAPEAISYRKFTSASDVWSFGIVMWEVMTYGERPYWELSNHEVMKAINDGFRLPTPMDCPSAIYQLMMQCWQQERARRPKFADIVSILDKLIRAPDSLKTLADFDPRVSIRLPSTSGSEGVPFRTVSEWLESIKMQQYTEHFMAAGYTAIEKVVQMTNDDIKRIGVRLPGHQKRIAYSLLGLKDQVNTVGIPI
Chain of MAP/microtubule affinity-regulating kinase 3 (Homo sapiens) (P27448 whole entry, looked up): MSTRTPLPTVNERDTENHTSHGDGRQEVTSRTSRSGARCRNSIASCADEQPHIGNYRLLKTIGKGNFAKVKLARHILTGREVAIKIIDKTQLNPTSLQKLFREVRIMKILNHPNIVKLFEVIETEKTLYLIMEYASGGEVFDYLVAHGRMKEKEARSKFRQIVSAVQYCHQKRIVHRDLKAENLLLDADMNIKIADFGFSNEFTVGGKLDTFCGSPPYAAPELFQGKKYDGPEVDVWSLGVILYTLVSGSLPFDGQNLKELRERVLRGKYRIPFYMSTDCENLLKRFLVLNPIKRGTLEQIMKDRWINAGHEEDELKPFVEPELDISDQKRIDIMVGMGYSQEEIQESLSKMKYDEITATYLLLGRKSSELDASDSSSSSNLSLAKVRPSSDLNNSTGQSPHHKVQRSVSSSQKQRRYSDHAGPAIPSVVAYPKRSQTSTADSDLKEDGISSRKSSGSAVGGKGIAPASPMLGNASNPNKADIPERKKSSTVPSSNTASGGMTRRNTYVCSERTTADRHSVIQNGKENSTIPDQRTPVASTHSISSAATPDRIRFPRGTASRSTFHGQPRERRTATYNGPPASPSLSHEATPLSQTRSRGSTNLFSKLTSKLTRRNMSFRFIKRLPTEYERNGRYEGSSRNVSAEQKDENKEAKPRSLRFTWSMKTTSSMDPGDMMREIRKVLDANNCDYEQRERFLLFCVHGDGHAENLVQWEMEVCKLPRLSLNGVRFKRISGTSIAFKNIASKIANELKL

Regarding `CC(=O)Nc1cccc(-c2cnc3[nH]nc(C)c3c2)c1`, the Activity was 45.6% in test [1]; 12.5% in test [2]; 31.5% in test [3]; 69.5% in [4]; 72% in test [5]; 100% in test [6]. In addition, the figures for the Activity in test [7], in test [8] and in test [9] were 17.9%, 73.9% and 108%, respectively.

Consider `CC(=O)Nc1nccc(-c2c(-c3ccccc3)noc2C)n1`, for which the Activity in test [1] stood at 79.3%; in [2], 92.5%; in test [3], 80.6%; in [4] it was 91.9%; in test [5], 80.4%; in test [6] it was 119%. Also, the Activity was 79.2% in test [7], 83.2% in test [8] and 80.7% in test [9].

Turning to `CCCC(=O)Nc1n[nH]c2ncc(-c3cccnc3)cc12`, the Activity is 62% in [1]; 92% in test [2]; 92% in [3]; 88% in test [4]; 90% in test [5]; 83% in test [6]. The results for the Activity in [7], in test [8] and in test [9] were 62%, 61% and 76%, respectively.
